How the values were obtained:
Ketohexokinase = molecular target: T1, Ketohexokinase (Human, UniProt P50053); assay: KHK Biochemical Assay
T1 sequence (P50053 whole entry): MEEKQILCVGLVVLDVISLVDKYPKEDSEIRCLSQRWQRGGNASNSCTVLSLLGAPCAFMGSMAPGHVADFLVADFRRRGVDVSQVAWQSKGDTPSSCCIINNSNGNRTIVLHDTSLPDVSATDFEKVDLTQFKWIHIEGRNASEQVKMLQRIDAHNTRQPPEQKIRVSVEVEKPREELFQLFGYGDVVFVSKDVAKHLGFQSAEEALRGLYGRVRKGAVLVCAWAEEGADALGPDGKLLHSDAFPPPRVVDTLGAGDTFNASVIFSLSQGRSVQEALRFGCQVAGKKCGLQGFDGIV
Procedure: (§1) Compounds were tested for KHK enzyme inhibition in a high-throughput 384-well assay format using the ADP-Glo assay (Promega) in buffer consisting of 50 mM Hepes (pH 7.4), 140 mM KCl, 5 mM MgCl2 and 0.01% Triton-X. 0.2 nM. […] Compounds were serially diluted (1:3) in DMSO. […] The plates were incubated at room temperature for 4 hours before adding ADP-Glo reagent to quench the enzyme reaction, followed by incubation at room temperature for 1 hour. The ADP-Glo detection reagent was then added to the plates and luminescence was measured on the Envision plate reader after 1 hour.

[1] = molecular target: T2, Isoform A of Ketohexokinase (Peripheral) (Human, UniProt P50053); assay: KHK Biochemical Assay
T2 sequence (P50053 whole entry): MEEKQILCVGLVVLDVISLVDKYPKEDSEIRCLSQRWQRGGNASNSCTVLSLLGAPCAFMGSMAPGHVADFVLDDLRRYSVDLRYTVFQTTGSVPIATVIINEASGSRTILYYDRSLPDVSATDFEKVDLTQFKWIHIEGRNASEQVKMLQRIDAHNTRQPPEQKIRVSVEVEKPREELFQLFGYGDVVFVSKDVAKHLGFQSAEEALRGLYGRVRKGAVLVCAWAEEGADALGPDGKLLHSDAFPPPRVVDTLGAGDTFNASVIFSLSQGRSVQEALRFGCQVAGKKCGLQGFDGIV
Procedure: as §1

Compound	IC50 (Ketohexokinase) [µM]	IC50 [1] [µM]
C[C@H]1[C@H](O)CN1c1nc(-c2ccc3c(c2)C(=O)N(C)C3)c2c(n1)C(F)(F)CC2 [US12410160, Example 236]	0.0054	
C[C@H]1[C@H](CO)CN1c1nc2c(c(-c3ccc(C(N)=O)cc3)n1)CCC2 (racemic) [US12410160, Example 267]	> 5	
C[C@H]1[C@H](O)CN1c1nc2c(c(-c3ccc(C(C)(C)O)cc3)n1)CCC2 [US12410160, Example 371]	0.187	0.442
C[C@H]1[C@H](O)CN1c1nc2c(c(-c3ccc4c(N)nccc4c3)n1)CCC2 [US12410160, Example 385]	0.0018	0.0042
C[C@H]1CCN1c1nc2c(c(-c3cncn3C)n1)CCC2 [US12410160, Example 341]	0.111	0.133
C[C@H]1CCN1c1nc(-c2cccc(C(N)=O)c2)c2c(n1)C1CC1C2 (some centres not stated) [US12410160, Example 272]	0.319	0.267
C[C@H]1CCN1c1nc2c(c(-c3ccnc(F)c3)n1)CCC2 [US12410160, Example 281]		0.34
CCOC(=O)NCc1ccc(-c2nc(N3CC[C@@H]3C)nc3c2CCC3)cc1 [US12410160, Example 358]	0.293	0.435
C[C@H]1[C@H](F)CN1c1nc2c(c(-c3cccc(S(N)(=O)=O)c3)n1)CCOC2 [US12410160, Example 287]	1.27	0.696
C[C@H]1CCN1c1nc2c(c(-c3ccc4c(c3)C(=O)N(C)C4)n1)CCC2 [US12410160, Example 206]	0.016	0.0244
C[C@H]1CCN1c1nc2c(c(-c3cccc(S(N)(=O)=O)n3)n1)CCC2 [US12410160, Example 223]	0.0269	0.0337
C[C@H]1CCN1c1nc2c(c(-c3ccc(CNS(C)(=O)=O)cc3)n1)CCC2 [US12410160, Example 361]	0.0303	0.0684
NC1(c2ccc(-c3nc(N4CCC4C4CC(F)(F)C4)nc4c3CCC4(F)F)cc2)COC1 (configuration not stated) [US12410160, Example 573]		> 0.1
C[C@H]1[C@H](O)CN1c1nc2c(c(-c3cccc(S(N)(=O)=O)c3)n1)CCC2 [US12410160, Example 209]	0.0553	0.0354
C[C@H]1[C@H](O)CN1c1nc(-c2ccc3c(c2)CCC32COCCC(=O)N2)c2c(n1)C(F)(F)CC2 (some centres not stated) [US12410160, Example 552]	0.0392	
C[C@H]1[C@H](F)CN1c1nc2c(c(-c3ccc4c(c3)C(=O)N(C)C4)n1)CCC2 [US12410160, Example 203]	0.0298	0.0665
C[C@H]1[C@H](O)CN1c1nc(-c2ccc(OC(F)F)c(S(C)(=N)=O)c2)c2c(n1)C(F)(F)CC2 (some centres not stated) [US12410160, Example 532]	0.0028	
CC1CCCc2nc(N3CC[C@@H]3C)nc(-c3ccccc3)c21 (some centres not stated) [US12410160, Example 340]		> 50
C[C@H]1[C@H](O)CN1c1nc(-c2ccc3c(c2)CCS3(=N)=O)c2c(n1)C(F)(F)CC2 (some centres not stated) [US12410160, Example 664]	0.0173	
C[C@H]1CCN1c1nc(-c2ccc(C(N)=O)cc2)c2cn[nH]c2n1 [US12410160, Example 401]	4.63	
C[C@H]1CCN1c1nc2c(c(-c3ccc4c(c3)CCNC4=O)n1)CCC2 [US12410160, Example 283]	0.0158	0.0286
C[C@H]1CCN1c1nc2c(c(-c3ccnc(S(N)(=O)=O)c3)n1)CCC2 [US12410160, Example 224]	0.114	0.155
C[C@H]1CCN1c1nc2c(c(-c3nc4ccccc4[nH]3)n1)CCC2 [US12410160, Example 389]	0.382	0.296
C[C@H]1[C@H](F)CN1c1nc2c(c(-c3cccc(CN)c3)n1)CCC2 [US12410160, Example 352]	0.0298	0.0356
C[C@H]1CCN1c1nc2c(c(-c3cccc(C4(N)CC4)c3)n1)CCC2 [US12410160, Example 225]	0.343	0.294
C[C@H]1CCN1c1nc2c(c(-c3ccc(C4(NS(C)(=O)=O)CC4)cc3)n1)CCC2 [US12410160, Example 306]		0.279

The remaining lines, values ahead:

IC50 (Ketohexokinase) [µM]	IC50 [1] [µM]	Compound
0.0251		C[C@H]1CCN1c1nc(-c2ccc(-n3ccnn3)cc2)c2c(n1)C(F)(F)CC2 [US12410160, Example 655]
0.239		C[C@H]1CCN1c1nc2c(c(-c3ccc4c(c3)CN(S(=O)(=O)CC#N)CC4)n1)CCC2 [US12410160, Example 604]
0.0012	0.0159	C[C@H]1[C@H](O)CN1c1nc(-c2ccc3c(c2)COCC32CCC(=O)N2)c2c(n1)C(F)(F)CC2 (some centres not stated) [US12410160, Example 639]
0.0013		C[C@H]1[C@H](O)CN1c1nc(-c2ccc3c(c2)C(NS(C)(=O)=O)CC3)c2c(n1)C(F)(F)CC2 (some centres not stated) [US12410160, Example 621]
0.0082		C[C@H]1CCN1c1nc(-c2cn(C3CNC3)nn2)c2c(n1)C(F)(F)CC2 [US12410160, Example 653]
0.0043		C[C@H]1[C@H](O)CN1c1nc(-c2ccc3c(c2)C(NS(C)(=O)=O)CO3)c2c(n1)C(F)(F)CC2 (some centres not stated) [US12410160, Example 613]
0.0009		C[C@H]1[C@H](O)CN1c1nc(-c2ccc3c(c2)S(=O)(=O)CC3NS(C)(=O)=O)c2c(n1)C(F)(F)CC2 (some centres not stated) [US12410160, Example 665]
0.0056		C[C@H]1[C@H](O)CN1c1nc(-c2ccc3c(c2)OC(C(F)F)CNC3=O)c2c(n1)C(F)(F)CC2 (some centres not stated) [US12410160, Example 597]
0.018		C[C@H]1[C@H](O)CN1c1nc(-c2ccc3c(c2)S(C)(=O)=NC3)c2c(n1)C(F)(F)CC2 (some centres not stated) [US12410160, Example 805]
0.0073		CCS(=O)(=O)N[C@H]1COc2cc(-c3nc(N4C[C@@H](O)[C@@H]4C)nc4c3CCC4(F)F)ccc21 [US12410160, Example 624]
0.0155		C[C@H]1[C@H](O)CN1c1nc(-c2cn(C3CNC3)nn2)c2c(n1)C(F)(F)CC2 [US12410160, Example 647]
0.0088	0.0103	C[C@H]1[C@H](O)CN1c1nc(-c2cccc(S(=N)(=O)CC#N)c2)c2c(n1)C(F)(F)CC2 (some centres not stated) [US12410160, Example 628]
0.0018	0.0713	COC(=O)N[C@H]1COc2cc(-c3nc(N4C[C@@H](O)[C@@H]4C)nc4c3CCC4(F)F)ccc21 [US12410160, Example 814]
0.0143		C[C@H]1[C@H](O)CN1c1nc(-c2cccc(-n3cnnc3)c2)c2c(n1)C(F)(F)CC2 [US12410160, Example 619]
0.0092		C[C@H]1[C@H](O)CN1c1nc(-c2cccc(N=S3(=O)CCOCC3)c2)c2c(n1)C(F)(F)CC2 [US12410160, Example 673]
0.0037	0.0093	FC1(F)CCc2c(-c3ccc4c(c3)OC[C@@H]4NC3COC3)nc(N3CC[C@@H]3C(F)(F)F)nc21 [US12410160, Example 588]
0.0057		N#C[C@H]1CCN1c1nc(-c2ccc([C@@H](N)C(F)F)cc2)c2c(n1)C(F)(F)CC2 [US12410160, Example 660]
0.0164		C[C@H]1CCN1c1nc(-c2cccc(-n3ccnn3)c2)c2c(n1)C(F)(F)CC2 [US12410160, Example 654]
0.0066		C[C@H]1CCN1c1nc(-c2ccc([C@H](N)C(F)F)cc2)c2c(n1)C(F)(F)CC2 [US12410160, Example 650]
0.0092		COC(=O)N[C@@H]1COc2cc(-c3nc(N4C[C@@H](O)[C@@H]4C)nc4c3CCC4(F)F)ccc21 [US12410160, Example 815]
0.0153		C[C@H]1CCN1c1nc2c(c(-c3cccc(C4CCS(=O)(=O)N4)c3)n1)CCC2 (some centres not stated) [US12410160, Example 606]
0.0519		C[C@H]1CCN1c1nc(-c2ccc(C#N)c(S(C)(=N)=O)c2)c2c(n1)C(F)(F)CC2 (some centres not stated) [US12410160, Example 798]
0.158		C[C@H]1CCN1c1nc2c(c(-c3cn(CCO)nn3)n1)CCC2 [US12410160, Example 645]
0.0009	0.0005	COc1ccc(-c2nc(N3CC[C@@H]3C(F)(F)F)nc3c2CCC3(F)F)cc1[S@@](C)(=N)=O [US12410160, Example 825]
0.22		C[C@H]1CCN1c1nc2c(c(-c3cn(C4CC4)nn3)n1)CCC2 [US12410160, Example 644]
0.0326		C[C@H]1[C@H](O)CN1c1nc(-c2ccc3c(c2)CNCC3)c2c(n1)C(F)(F)CC2 [US12410160, Example 612]
0.0007	0.0013	Cc1cc(-c2nc(N3CC[C@@H]3C(F)(F)F)nc3c2CCC3(F)F)ccc1C1(N)COC1 [US12410160, Example 586]
0.0037	0.013	C[C@H]1[C@H](O)CN1c1nc(-c2ccc3c(c2)COC[C@@H]3NS(=O)(=O)CF)c2c(n1)C(F)(F)CC2 [US12410160, Example 580]
